Structures can show the parent of a compound that is named as a salt.
Assays:
Format in all cases: physicochemical
[1] = Solubility in simulated intestinal fluids at controlled ambient room temperature; details: for Solubility in FaSSIF and FeSSIF (in words): mesylate compared to the bis-HCl salt
[2] = Water vapor sorption (DVS) at 25° C.
Procedure: Water vapor sorption experiments were performed using a Surface Measurement System DVS Advantage at 25° C. The Bis-HCl salt of Compound A reversibly absorbed approximately 7% weight per weight of water between 0% and 90% relative humidity at 25° C. […] Upon desorption the conversions were reversible. The Form 1 crystalline mesylate salt of Compound A reversibly absorbed approximately 1.6% weight per weight of water between 0% and 90% relative humidity at 25° C.

[3] = Thermal behaviour during heating (DSC)
Procedure: Differential Scanning calorimetry (DSC) data were acquired on a TA Instruments Q20 DSC. The method parameters were: Heat Program: 30° C. to 300° C. using a 10° C. per minute heating rate, under a nitrogen gas flow.

[4] = Fasted State Simulated Intestinal Fluid (FaSSif) pH 6.5, controlled ambient room temperature
[5] = Fed State Simulated Intestinal Fluid (FeSSif) pH 6.5, controlled ambient room temperature

Row | SMILES | Solubility in FaSSIF and FeSSIF (in words) ([1]; listed as parent free base of Compound A) | Solubility of Specified Version [1, 4] | Solubility of Specified Version [1, 5] | Solubility in FaSSIF and FeSSIF (in words) ([1]; listed as Form 1 of the mesylate salt of Compound A) | Solid form change upon moisture sorption ([2]; ambient humidity conditions) | Water reversibly absorbed ([2]; between 0% and 90% relative humidity at 25° C.) | Hygroscopicity (in words) ([2]; compared to the bis-HCl salt, ambient humidity conditions) | Thermal loss of counter-ion during heating [3]
1 | C=C(C)[C@@H]1CC[C@]2(NCCN3CCS(=O)(=O)CC3)CC[C@]3(C)[C@H](CC[C@@H]4[C@@]5(C)CC=C(C6=CC[C@@](CF)(C(=O)O)CC6)C(C)(C)[C@@H]5CC[C@]43C)[C@@H]12 [Parent Compound A, (1R)-4-[(1R,3aS,5aR,5bR,7aR,11aS,11bR,13aR,13bR)-3a-{[2-(1,1-dioxido-4-thiomorpholinyl)ethyl]amino}-5a,5b,8,8,11a-pentamethyl-1-(1-propen-2-yl)-2,3,3a,4,5,5a,5b,6,7,7a,8,11,11a,11b,12,13,13a,13b-octadecahydro-1H-cyclopenta[a]chrysen-9-yl]-1-(fluoromethyl)-3-cyclohexene-1-carboxylic acid] | poor solubility | Less than 0.001 mg/mL | Less than 0.001 mg/mL |  |  |  |  | 
2 | C=C(C)[C@@H]1CC[C@]2(NCCN3CCS(=O)(=O)CC3)CC[C@]3(C)[C@H](CC[C@@H]4[C@@]5(C)CC=C(C6=CC[C@@](CF)(C(=O)O)CC6)C(C)(C)[C@@H]5CC[C@]43C)[C@@H]12 [Form 1 of Mesylate salt of Compound A] |  | 100 µg/mL | 600 µg/mL | greater solubility | no significant form change | approximately 1.6 % weight per weight | lower hygroscopicity | does not show this behavior

Source: patent US20220024970A1, “COMPOUNDS WITH HIV MATURATION INHIBITORY ACTIVITY” (VIIV HEALTHCARE UK (NO. 4) LIMITED, priority 2018, published 2022)
